Literature values, collected in patent US20190282540A1, “TARGETED DRUG DELIVERY” (NOXOPHARM LIMITED, priority 2016, published 2019).

How the values were obtained:
[1] = test system: wide range of cancer cell types; conditions: fold relative to genistein
[2] = [14C] idronoxil given orally, target dose 20 mg/kg
[3] = in vivo, following dietary challenge

For Oc1ccc(C2=Cc3ccc(O)cc3OC2)cc1 [Idronoxil, 2H-1-Benzopyran-7-0,1,3-(4-hydroxyphenyl)], the “potency as an anti-cancer agent compared to genistein” value [1] is listed as “about 10 ×”, the conjugation (intravenously administered, second-pass liver metabolism) is listed as “completely conjugated” and the “conversion into water-soluble conjugates” value (orally administered, gut mucosa transferase activity and first-pass liver metabolism) is listed as “completely converted into water-soluble conjugates”. The “levels of isotope in the brain and spinal cord” value [2] was “below the limit of reliable measurement”.

In the case of O=c1c(-c2ccc(O)cc2)coc2cc(O)cc(O)c12 [genistein], the brain-to-blood ratio [3] is listed as 0.04.
